EC50 data for 16 compounds are collected here from patent publication US11596692B1 (Incyte Corporation, priority 2018, dated 2023).

Like-named read-outs stand apart in the source and are kept apart here.

The test has as its system IRF3. In words: IRF3 activation assay in THP-1 Dual cells. The format is cell-based. The note with it: Homo sapiens, read-out: THP1 IRF3 EC50. The protocol:
THP-1 Dual Cells (Invivogen) were maintained in RPMI1640 medium with addition of 10% FBS, 100 μg/ml zeocin, 10 μg/ml blasticidin. Cells were added in a 96-well flat bottom assay plate at 100,000 per well in 100 μL complete RPMI medium. Test compounds were prepared by serial dilution in complete RPMI medium and 100 μL test compounds were transferred to each corresponding well. The assay plate was incubated at 37° C., 5% CO2 for 24 hours. After the overnight incubation, 20 μL of the culture supernatants were collected, followed by addition of 180 μL of QUANTI-Blue (Invivogen) to assess IRF3 activity. The amount of IRF3 activation was assessed by reading the absorbance at 620-655 nm with a microplate reader 2 hours later. The culture supernatant from the untreated THP-1 cells was used as the negative control. EC50 determination was performed by fitting the curve of percent control activity versus the log of the compound concentration using the GraphPad Prism 6.0 software.

Broadly, the EC50 is the concentration that produces a half-maximal response. `CCn1nc(C)cc1C(=O)Nc1nc2cc(C(N)=O)cc(C)c2n1C/C=C/Cn1c2ccc(C(N)=O)cc2c2cc(C#N)c(-c3cc(C)nn3CC)nc21` [Example S25, (E)-9-(4-(5-carbamoyl-2-(1-ethyl-3-methyl-1H-pyrazole-5-carboxamido)-7-methyl-1H-benzo[d]imidazol-1-yl)but-2-en-1-yl)-3-cyano-2-(1-ethyl-3-methyl-1H-pyrazol-5-yl)-9H-pyrido[2,3-b]indole-6-carboxamide]: the EC50 is, setting by setting: (THP-1, Table 4A) 100 to 500 nM; (THP-1, Table 4B) below 1000 nM; (THP-1, Table 4C) 200 to 500 nM.

With `CCn1nc(C)cc1C(=O)Nc1nc2cc(C(N)=O)cc(OCCCOC(=O)c3cc(C)nn3CC)c2n1C/C=C/Cn1c2nc(-c3cc(C)nn3CC)ncc2c2cc(C(N)=O)cc(OCCCN3CCOCC3)c21` [Example S19, (E)-3-((5-carbamoyl-1-(4-(6-carbamoyl-2-(1-ethyl-3-methyl-1H-pyrazol-5-yl)-8-(3-morpholinopropoxy)-9H-pyrimido[4,5-b]indol-9-yl)but-2-en-1-yl)-2-(1-ethyl-3-methyl-1H-pyrazole-5-carboxamido)-1H-benzo[d]imidazol-7-yl)oxy)propyl 1-ethyl-3-methyl-1H-pyrazole-5-carboxylate], the EC50 (THP-1, Table 4A) was at most 100 nM; the EC50 (THP-1, Table 4B) was below 200 nM; the EC50 (THP-1, Table 4C) is at most 50 nM.

As for `CCCn1nc(C)cc1-c1ncc2c3cc(C(N)=O)ccc3n(C/C=C/Cn3c(NC(=O)c4cc(C)nn4CC)nc4cc(C(N)=O)cc(C)c43)c2n1` [Example S6, (E)-9-(4-(5-carbamoyl-2-(1-ethyl-3-methyl-1H-pyrazole-5-carboxamido)-7-methyl-1H-benzo[d]imidazol-1-yl)but-2-enyl)-2-(3-methyl-1-propyl-1H-pyrazol-5-yl)-9 H-pyrimido[4,5-b]indole-6-carboxamide], the EC50 (THP-1, Table 4A) is at most 100 nM; the EC50 (THP-1, Table 4B) is below 200 nM; the 50% effective concentration (EC50) (THP-1, Table 4C) was at most 50 nM.

As for `CCn1nc(C)cc1C(=O)Nc1nc2cc(C(N)=O)cc(C)c2n1C/C=C/Cn1c2ccc(C(N)=O)cc2c2cnc(-c3cc(C)nn3C)nc21` [Example S3, (E)-9-(4-(5-carbamoyl-2-(1-ethyl-3-methyl-1H-pyrazole-5-carboxamido)-7-methyl-1H-benzo[d]imidazol-1-yl)but-2-enyl)-2-(1,3-dimethyl-1H-pyrazol-5-yl)-9H-pyrimido[4,5-b]indole-6-carboxamide], the EC50 by setting is: (THP-1, Table 4A) 100 to 500 nM; (THP-1, Table 4B) below 1000 nM.

In the case of `CCn1nc(C)cc1C(=O)Nc1nc2cc(C(N)=O)cc(OCCCO)c2n1C/C=C/Cn1c2nc(-c3cc(C)nn3CC)ncc2c2cc(C(N)=O)cc(OCCCOC(=O)NCCC(=O)O)c21` [Example S62, (E)-3-((3-(6-carbamoyl-9-(4-(5-carbamoyl-2-(1-ethyl-3-methyl-1H-pyrazole-5-carboxamido)-7-(3-hydroxypropoxy)-1H-benzo[d]imidazol-1-yl)but-2-enyl)-2-(1-ethyl-3-methyl-1H-pyrazol-5-yl)-9H-pyrimido[4,5-b]indol-8-yloxy)propoxy)carbonylamino)propanoic acid], where the note is “THP-1, Table 4C”, the EC50 lay within 50 to 200 nM.

With `CCn1nc(C)cc1C(=O)Nc1nc2cc(C(N)=O)cc(C)c2n1C/C=C/Cn1c2nc(-c3cc(C)nn3CC)ncc2c2cc(C(N)=O)cc(OC)c21` [Example S10, (E)-9-(4-(5-carbamoyl-2-(1-ethyl-3-methyl-1H-pyrazole-5-carboxamido)-7-methyl-1H-benzo[d]imidazol-1-yl)but-2-enyl)-2-(1-ethyl-3-methyl-1H-pyrazol-5-yl)-8-methoxy-9H-pyrimido[4,5-b]indole-6-carboxamide], the EC50 reads like this: (THP-1, Table 4A) at most 100 nM; (THP-1, Table 4B) below 200 nM; (THP-1, Table 4C) at most 50 nM.

On to `CCn1nc(C)cc1-c1ncc2c3cc(C(N)=O)cc(OC)c3n(C/C=C/Cn3c4nc(-c5cc(C)nn5CC)ncc4c4cc(C(N)=O)cc(OC)c43)c2n1` [Example S29, (E)-9,9′-(but-2-ene-1,4-diyl)bis(2-(1-ethyl-3-methyl-1H-pyrazol-5-yl)-8-methoxy-9H-pyrimido[4,5-b]inclole-6-carboxamide)], for which the EC50 (THP-1, Table 4A) was at most 100 nM.

Turning to `CCn1nc(C)cc1C(=O)Nc1nc2cc(C(N)=O)cc(C)c2n1C/C=C/Cn1c2ccccc2c2cnc(-c3cc(C)nn3CC)nc21` [Example S2, (E)-1-(4-(2-(1-ethyl-3-methyl-1H-pyrazol-5-yl)-9H-pyrimido[4,5-b]indol-9-yl)but-2-enyl)-2-(1-ethyl-3-methyl-1H-pyrazole-5-carboxamido)-7-methyl-1H-benzo[d]imidazole-5-carboxamide], the EC50 by setting is: (THP-1, Table 4A) 100 to 500 nM; (THP-1, Table 4B) below 1000 nM; (THP-1, Table 4C) 200 to 500 nM.

Take `CCn1nc(C)cc1C(=O)Nc1nc2cc(C(N)=O)cc(C)c2n1C/C=C/Cn1c2ccc(C(N)=O)cc2c2cnc(-c3cc(C)nn3CC)nc21` [Example S1, (E)-9-(4-(5-carbamoyl-2-(1-ethyl-3-methyl-1H-pyrazole-5-carboxamido)-7-methyl-1H-benzo[d]imidazol-1-yl)but-2-enyl)-2-(1-ethyl-3-methyl-1H-pyrazol-5-yl)-9H-pyrimido[4,5-b]indole-6-carboxamide]: the EC50 is, setting by setting: (THP-1, Table 4A) 500 to 1000 nM; (THP-1, Table 4B) below 1000 nM; (THP-1, Table 4C) 50 to 200 nM.

On to `CCn1nc(C)cc1C(=O)Nc1nc2cc(C(N)=O)cc(OC)c2n1C/C=C/Cn1c2nc(-c3cc(C)nn3CC)ncc2c2cc(C(N)=O)cc(OCCCNC(=O)CCCC(=O)O)c21` [Example S51, (E)-5-(3-(6-carbamoyl-9-(4-(5-carbamoyl-2-(1-ethyl-3-methyl-1H-pyrazole-5-carboxamido)-7-methoxy-1H-benzo[d]imidazol-1-yl)but-2-enyl)-2-(1-ethyl-3-methyl-1H-pyrazol-5-yl)-9H-pyrimido[4,5-b]indol-8-yloxy)propylamino)-5-oxopentanoic acid], for which the EC50 (THP-1, Table 4C) was at most 50 nM.

For the compound `CCn1nc(C)cc1C(=O)Nc1nc2cc(C(N)=O)cc(OCCCN3CCOCC3)c2n1C/C=C/Cn1c2nc(-c3cc(C)nn3CC)ncc2c2cc(C(N)=O)cc(OCCCOC)c21` [Example S27, (E)-9-(4-(5-carbamoyl-2-(1-ethyl-3-methyl-1H-pyrazole-5-carboxamido)-7-(3-morpholinopropoxy)-1H-benzo [d]imidazol-1-yl)but-2-en-1-yl)-2-(1-ethyl-3-methyl-1H-pyrazol-5-yl)-8-(3-methoxypropoxy)-9H-pyrimido[4,5-b]indole-6-carboxamide], the EC50 is, setting by setting: (THP-1, Table 4A) at most 100 nM; (THP-1, Table 4B) below 200 nM; (THP-1, Table 4C) at most 50 nM.

As to `CCn1nc(C)cc1C(=O)Nc1nc2cc(C(N)=O)cc(OCCCO)c2n1C/C=C/Cn1c2nc(-c3cc(C)nn3CC)ncc2c2cc(C(N)=O)cc(OCCCNC(=O)OCCC(=O)O)c21` [Example S54, (E)-3-(3-(6-carbamoyl-9-(4-(5-carbamoyl-2-(1-ethyl-3-methyl-1H-pyrazole-5-carboxamido)-7-(3-hydroxypropoxy)-1H-benzo[d]imidazol-1-yl)but-2-enyl)-2-(1-ethyl-3-methyl-1H-pyrazol-5-yl)-9H-pyrimido[4,5-b]indol-8-yloxy)propylcarbamoyloxy)propanoic acid], the concentration giving a half-maximal response (EC50) (THP-1, Table 4C) is at most 50 nM.

In the case of `CCn1nc(C)cc1C(=O)Nc1nc2cc(C(N)=O)cc(OCCCOC(=O)NCCC(=O)O)c2n1C/C=C/Cn1c(NC(=O)c2cc(C)nn2CC)nc2cc(C(N)=O)c3ccoc3c21` [Example S66, (E)-3-(((3-((5-carbamoyl-1-(4-(5-carbamoyl-2-(1-ethyl-3-methyl-1H-pyrazole-5-carboxamido)-1H-benzofuro[6,7-d]imidazol-1-yl)but-2-en-1-yl)-2-(1-ethyl-3-methyl-1H-pyrazole-5-carboxamido)-1H-benzo[d]imidazol-7-yl)oxy)propoxy)carbonyl)amino)propanoic acid], the half-maximal effective concentration (EC50) (THP-1, Table 4A) is at most 100 nM.

As for `CCn1nc(C)cc1C(=O)Nc1nc2cc(C(N)=O)cc(OCCOC(=O)c3cc(C)nn3CC)c2n1C/C=C/Cn1c2nc(-c3cc(C)nn3CC)ncc2c2cc(C(N)=O)cc(OCCCOC)c21` [Example S40, (E)-2-((5-carbamoyl-1-(4-(6-carbamoyl-2-(1-ethyl-3-methyl-1H-pyrazol-5-yl)-8-(3-methoxypropoxy)-9H-pyrimido[4,5-b]indol-9-yl)but-2-en-1-yl)-2-(1-ethyl-3-methyl-1H-pyrazole-5-carboxamido)-1H-benzo[d]imidazol-7-yl)oxy)ethyl 1-ethyl-3-methyl-1H-pyrazole-5-carboxylate], under “THP-1, Table 4C”, the 50% effective concentration (EC50) was at most 50 nM.

Consider `CCn1nc(C)cc1C(=O)Nc1nc2cc(C(N)=O)cc(OCCCOC)c2n1C/C=C/Cn1c2nc(-c3cc(C)nn3CC)ncc2c2cc(C(N)=O)cc(OCCCNC(=O)CCCC(=O)O)c21` [Example S55, (E)-5-(3-(6-carbamoyl-9-(4-(5-carbamoyl-2-(1-ethyl-3-methyl-1H-pyrazole-5-carboxamido)-7-(3-methoxypropoxy)-1H-benzo[d]imidazol-1-yl)but-2-enyl)-2-(1-ethyl-3-methyl-1H-pyrazol-5-yl)-9H-pyrimido[4,5-b]indol-8-yloxy)propylamino)-5-oxopentanoic acid], for which the EC50 (THP-1, Table 4C) was at most 50 nM.

Consider `CCn1nc(C)cc1C(=O)Nc1nc2cc(C(N)=O)cc(OCCCC#N)c2n1C/C=C/Cn1c2nc(-c3cc(C)nn3CC)ncc2c2cc(C(N)=O)cc(OCCCOC)c21` [Example S34, (E)-9-(4-(5-carbamoyl-7-(3-cyanopropoxy)-2-(1-ethyl-3-methyl-1H-pyrazole-5-carboxamido)-1H-benzo[d]imidazol-1-yl)but-2-en-1-yl)-2-(1-ethyl-3-methyl-1H-pyrazol-5-yl)-8-(3-methoxypropoxy)-9H-pyrimido[4,5-b]indole-6-carboxamide], for which, where the note is “THP-1, Table 4C”, the EC50 is at most 50 nM.
